The results in this text go back to ChEMBL document CHEMBL4184149, “Discovery and process development of a novel TACE inhibitor for the topical treatment of psoriasis” (Bioorg Med Chem, 2018).

Data set [1] has as its target 72 kDa type IV collagenase (Homo sapiens, UniProt P08253). The data set is described as follows: Inhibition of MMP2 (unknown origin).
Data set [2] addresses Matrix metalloproteinase-9 (Homo sapiens, UniProt P14780). Kind of data set: Inhibition of MMP9 (unknown origin).
Data set [3] concerns TK6. The data set is described as follows: Genotoxicity in human TK6 cells in absence of rat S9 fraction by Giemsa staining based micronucleus assay. The class given is toxicity, cell-based.
The next data set has as its target T1, Matrilysin (Homo sapiens, UniProt P09237).
T1 sequence (P09237 whole entry): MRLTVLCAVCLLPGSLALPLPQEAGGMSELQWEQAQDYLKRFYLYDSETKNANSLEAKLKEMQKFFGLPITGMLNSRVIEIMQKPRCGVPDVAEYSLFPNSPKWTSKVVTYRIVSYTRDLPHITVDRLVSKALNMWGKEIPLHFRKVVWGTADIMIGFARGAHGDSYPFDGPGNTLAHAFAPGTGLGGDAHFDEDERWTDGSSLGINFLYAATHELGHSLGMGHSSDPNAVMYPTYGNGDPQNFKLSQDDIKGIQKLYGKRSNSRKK
The data set is described as follows: Inhibition of MMP7 (unknown origin).

For data set [4], the system named is Salmonella typhimurium. The data set is described as follows: Mutagenicity in Salmonella typhimurium TA100 in presence of rat S9 fraction by Ames test. The class given is toxicity, organism-based. To be noted: salmonella enterica subsp. enterica serovar typhimurium.
The next data set has as its target Collagenase 3 (Homo sapiens, UniProt P45452). The data set is described as follows: Inhibition of MMP13 (unknown origin).
The nature of data set [5]: Half life in human neonatal keratinocytes at 1 uM by LC-MS/MS analysis. The class given is ADME, cell-based.
Data set [6] concerns the target T2, Disintegrin and metalloproteinase domain-containing protein 17 (Homo sapiens, UniProt P78536). The data set is described as follows: Inhibition of TACE in human PBMC assessed as reduction in LPS-induced TNFalpha production incubated overnight by HTRF assay. The class given is cell-based.
Data set [7] concerns Salmonella typhimurium. Kind of data set: Mutagenicity in Salmonella typhimurium TA98 in presence of rat S9 fraction by Ames test. The class given is toxicity, organism-based. To be noted: salmonella enterica subsp. enterica serovar typhimurium.
Data set [8] is described as follows: Fraction unbound in human plasma at 5 uM after 4 hrs by LC-MS/MS analysis. In kind it is ADME, cell-free.
The next data set concerns the target T3, Interstitial collagenase (Homo sapiens, UniProt P03956).
T3 sequence (P03956 whole entry): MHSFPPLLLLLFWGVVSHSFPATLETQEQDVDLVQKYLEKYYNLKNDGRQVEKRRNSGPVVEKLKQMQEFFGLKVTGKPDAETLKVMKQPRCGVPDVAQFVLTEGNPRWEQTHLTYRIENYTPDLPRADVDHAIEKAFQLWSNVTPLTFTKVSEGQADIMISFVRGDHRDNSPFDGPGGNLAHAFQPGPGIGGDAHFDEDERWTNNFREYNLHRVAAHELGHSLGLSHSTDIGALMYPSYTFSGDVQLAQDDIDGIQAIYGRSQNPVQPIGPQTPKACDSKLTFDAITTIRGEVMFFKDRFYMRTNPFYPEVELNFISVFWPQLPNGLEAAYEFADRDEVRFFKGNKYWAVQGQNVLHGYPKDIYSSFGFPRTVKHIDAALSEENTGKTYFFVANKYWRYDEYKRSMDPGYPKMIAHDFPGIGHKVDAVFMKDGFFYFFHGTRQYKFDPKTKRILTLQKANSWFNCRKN
The data set is described as follows: Inhibition of recombinant human MMP1 catalytic domain using Mca-Pro-Leu-Gly-Leu-Dpa-Ala-Arg-NH2 as substrate after 10 mins by fluorescence assay.

The target of data set [9] is T4, Disintegrin and metalloproteinase domain-containing protein 9 (Homo sapiens, UniProt Q13443).
T4 sequence (Q13443 whole entry): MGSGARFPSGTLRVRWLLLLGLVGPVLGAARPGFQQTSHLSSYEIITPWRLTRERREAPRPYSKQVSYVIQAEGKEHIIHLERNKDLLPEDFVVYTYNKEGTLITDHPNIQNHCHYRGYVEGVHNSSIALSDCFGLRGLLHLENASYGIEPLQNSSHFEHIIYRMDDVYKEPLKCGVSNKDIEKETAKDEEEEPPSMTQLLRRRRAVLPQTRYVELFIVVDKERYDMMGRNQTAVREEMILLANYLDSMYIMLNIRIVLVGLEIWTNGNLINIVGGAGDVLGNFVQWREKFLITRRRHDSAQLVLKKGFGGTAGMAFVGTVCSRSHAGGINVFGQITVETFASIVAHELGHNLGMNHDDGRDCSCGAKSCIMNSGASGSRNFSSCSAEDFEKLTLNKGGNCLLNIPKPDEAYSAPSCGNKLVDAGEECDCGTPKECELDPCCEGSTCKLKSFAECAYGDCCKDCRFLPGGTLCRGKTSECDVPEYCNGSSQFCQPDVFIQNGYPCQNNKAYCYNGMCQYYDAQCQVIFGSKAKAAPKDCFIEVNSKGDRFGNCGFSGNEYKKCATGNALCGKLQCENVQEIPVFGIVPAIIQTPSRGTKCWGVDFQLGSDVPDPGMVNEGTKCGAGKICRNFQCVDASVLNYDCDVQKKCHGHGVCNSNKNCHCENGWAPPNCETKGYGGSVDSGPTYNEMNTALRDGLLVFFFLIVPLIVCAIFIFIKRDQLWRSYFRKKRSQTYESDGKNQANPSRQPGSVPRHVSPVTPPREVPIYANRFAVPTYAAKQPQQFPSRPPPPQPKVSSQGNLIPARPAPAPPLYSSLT
Kind of data set: Inhibition of ADAM9 (unknown origin).

The test system of data set [10] is Salmonella typhimurium. The data set is described as follows: Mutagenicity in Salmonella typhimurium TA100 in absence of rat S9 fraction by Ames test. The class given is toxicity, organism-based. Particulars: salmonella enterica subsp. enterica serovar typhimurium.
Data set [11] has as its target Matrix metalloproteinase-14 (Homo sapiens, UniProt P50281). Kind of data set: Inhibition of MMP14 (unknown origin).
Another data set has as its target Stromelysin-1 (Homo sapiens, UniProt P08254). The data set is described as follows: Inhibition of MMP3 (unknown origin).
For data set [12], the system named is Salmonella typhimurium. The data set is described as follows: Mutagenicity in Salmonella typhimurium TA98 in absence of rat S9 fraction by Ames test. In kind it is toxicity, organism-based. Particulars: salmonella enterica subsp. enterica serovar typhimurium.
For data set [13], the system named is TK6. Kind of data set: Genotoxicity in p53-competent human TK6 cells in presence of Sprague-Dawley rat S9 fraction by GADD45alpha GFP reporter assay. In kind it is toxicity, cell-based.
The nature of data set [14]: Stability of the compound in propylene glycol/ethanol96 at 0.1 mg/ml measured up to 3 months by HPLC analysis. In kind it is physicochemical. Particulars: read-out: Stability.
The target of data set [15] is T2, Disintegrin and metalloproteinase domain-containing protein 17. Kind of data set: Inhibition of recombinant human TACE catalytic domain using Mca-Pro-Leu-Ala-Gln-Ala-Val-Dpa-Arg-Ser-Ser-Ser-Arg-NH2 as substrate after 2 hrs by fluorescence assay.
In data set [16] the test system is TK6. Kind of data set: Genotoxicity in p53-competent human TK6 cells in absence of Sprague-Dawley rat S9 fraction by GADD45alpha GFP reporter assay. The class given is toxicity, cell-based.
A further data set deals with Neutrophil collagenase (Homo sapiens, UniProt P22894). The data set is described as follows: Inhibition of MMP8 (unknown origin).
The target of data set [17] is T2, Disintegrin and metalloproteinase domain-containing protein 17. Kind of data set: Inhibition of TACE in NHEK assessed as reduction in LPS/TPA-stimulated TNFalpha production preincubated for 1 hr followed by LPS/TPA stimulation for 24 hrs by HTRF assay.

T2 sequence (P78536 whole entry, the tested form may be a part): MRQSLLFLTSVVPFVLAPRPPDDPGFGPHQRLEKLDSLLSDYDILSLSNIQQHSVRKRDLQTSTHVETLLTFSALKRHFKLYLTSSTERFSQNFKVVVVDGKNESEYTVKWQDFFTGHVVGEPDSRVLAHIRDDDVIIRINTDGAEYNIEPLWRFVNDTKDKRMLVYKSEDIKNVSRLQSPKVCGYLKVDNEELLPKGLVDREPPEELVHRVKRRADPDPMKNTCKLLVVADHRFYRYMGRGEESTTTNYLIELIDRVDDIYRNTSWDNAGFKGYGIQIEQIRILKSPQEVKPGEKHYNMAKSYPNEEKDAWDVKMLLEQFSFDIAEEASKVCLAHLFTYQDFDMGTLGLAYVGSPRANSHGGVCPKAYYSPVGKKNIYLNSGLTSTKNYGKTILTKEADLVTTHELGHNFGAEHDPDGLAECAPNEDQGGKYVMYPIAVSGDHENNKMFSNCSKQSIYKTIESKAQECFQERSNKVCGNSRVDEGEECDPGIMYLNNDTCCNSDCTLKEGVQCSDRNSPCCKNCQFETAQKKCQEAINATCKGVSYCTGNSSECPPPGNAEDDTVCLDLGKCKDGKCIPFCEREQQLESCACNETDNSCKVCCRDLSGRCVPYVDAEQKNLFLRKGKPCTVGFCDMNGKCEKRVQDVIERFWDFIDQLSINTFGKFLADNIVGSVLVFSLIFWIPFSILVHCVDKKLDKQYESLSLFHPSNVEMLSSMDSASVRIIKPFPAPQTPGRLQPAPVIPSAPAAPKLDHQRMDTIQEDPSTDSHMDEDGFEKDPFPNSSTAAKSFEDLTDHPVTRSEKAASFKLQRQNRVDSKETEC
Chain of Matrix metalloproteinase-9 (P14780 whole entry): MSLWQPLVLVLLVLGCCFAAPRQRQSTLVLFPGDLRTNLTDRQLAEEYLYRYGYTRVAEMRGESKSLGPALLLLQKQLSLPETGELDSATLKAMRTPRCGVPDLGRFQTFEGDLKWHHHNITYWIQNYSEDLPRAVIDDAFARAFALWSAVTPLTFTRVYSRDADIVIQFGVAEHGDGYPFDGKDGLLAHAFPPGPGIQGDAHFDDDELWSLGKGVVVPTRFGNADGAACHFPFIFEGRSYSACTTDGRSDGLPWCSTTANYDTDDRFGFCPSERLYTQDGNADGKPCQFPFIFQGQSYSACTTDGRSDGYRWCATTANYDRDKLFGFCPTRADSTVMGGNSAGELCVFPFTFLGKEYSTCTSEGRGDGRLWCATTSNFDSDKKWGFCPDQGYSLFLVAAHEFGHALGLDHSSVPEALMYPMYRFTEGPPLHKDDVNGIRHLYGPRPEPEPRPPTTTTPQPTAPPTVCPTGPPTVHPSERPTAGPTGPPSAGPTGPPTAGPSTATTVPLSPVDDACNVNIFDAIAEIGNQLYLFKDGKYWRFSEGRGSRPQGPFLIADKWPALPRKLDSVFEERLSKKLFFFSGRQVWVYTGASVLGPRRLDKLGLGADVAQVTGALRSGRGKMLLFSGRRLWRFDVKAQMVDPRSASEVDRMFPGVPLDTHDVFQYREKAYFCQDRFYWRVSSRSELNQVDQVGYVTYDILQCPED
Chain of 72 kDa type IV collagenase (P08253 whole entry): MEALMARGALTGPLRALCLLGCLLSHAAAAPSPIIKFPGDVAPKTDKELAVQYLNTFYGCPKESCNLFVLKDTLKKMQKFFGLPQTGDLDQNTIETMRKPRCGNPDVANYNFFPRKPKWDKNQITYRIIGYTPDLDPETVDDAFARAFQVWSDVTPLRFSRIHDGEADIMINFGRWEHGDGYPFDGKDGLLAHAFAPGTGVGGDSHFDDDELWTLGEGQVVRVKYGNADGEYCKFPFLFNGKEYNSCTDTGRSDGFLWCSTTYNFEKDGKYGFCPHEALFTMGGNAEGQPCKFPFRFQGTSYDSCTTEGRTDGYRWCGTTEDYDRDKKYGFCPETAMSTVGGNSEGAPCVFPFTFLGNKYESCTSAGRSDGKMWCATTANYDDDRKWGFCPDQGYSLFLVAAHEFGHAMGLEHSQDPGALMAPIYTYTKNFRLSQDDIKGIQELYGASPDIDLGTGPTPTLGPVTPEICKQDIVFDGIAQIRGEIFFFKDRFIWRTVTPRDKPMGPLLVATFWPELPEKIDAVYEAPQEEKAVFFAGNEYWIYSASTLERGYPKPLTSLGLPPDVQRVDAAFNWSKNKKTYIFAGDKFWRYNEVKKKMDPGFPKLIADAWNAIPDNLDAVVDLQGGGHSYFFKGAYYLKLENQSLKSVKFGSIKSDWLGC
Chain of Neutrophil collagenase (P22894 whole entry, the tested form may be a part): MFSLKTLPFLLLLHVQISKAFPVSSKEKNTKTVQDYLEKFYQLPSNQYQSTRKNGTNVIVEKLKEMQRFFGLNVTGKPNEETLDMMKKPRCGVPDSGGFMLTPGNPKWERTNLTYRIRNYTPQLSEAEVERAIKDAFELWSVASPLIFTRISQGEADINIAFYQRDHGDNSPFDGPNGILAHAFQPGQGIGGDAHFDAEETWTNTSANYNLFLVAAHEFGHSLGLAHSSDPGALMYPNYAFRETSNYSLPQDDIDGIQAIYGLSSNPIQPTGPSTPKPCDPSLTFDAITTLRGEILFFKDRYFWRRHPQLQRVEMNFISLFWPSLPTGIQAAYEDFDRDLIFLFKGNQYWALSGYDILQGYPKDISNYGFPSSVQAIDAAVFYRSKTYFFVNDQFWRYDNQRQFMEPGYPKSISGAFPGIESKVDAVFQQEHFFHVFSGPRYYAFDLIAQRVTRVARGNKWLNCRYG
Chain of Stromelysin-1 (P08254 whole entry): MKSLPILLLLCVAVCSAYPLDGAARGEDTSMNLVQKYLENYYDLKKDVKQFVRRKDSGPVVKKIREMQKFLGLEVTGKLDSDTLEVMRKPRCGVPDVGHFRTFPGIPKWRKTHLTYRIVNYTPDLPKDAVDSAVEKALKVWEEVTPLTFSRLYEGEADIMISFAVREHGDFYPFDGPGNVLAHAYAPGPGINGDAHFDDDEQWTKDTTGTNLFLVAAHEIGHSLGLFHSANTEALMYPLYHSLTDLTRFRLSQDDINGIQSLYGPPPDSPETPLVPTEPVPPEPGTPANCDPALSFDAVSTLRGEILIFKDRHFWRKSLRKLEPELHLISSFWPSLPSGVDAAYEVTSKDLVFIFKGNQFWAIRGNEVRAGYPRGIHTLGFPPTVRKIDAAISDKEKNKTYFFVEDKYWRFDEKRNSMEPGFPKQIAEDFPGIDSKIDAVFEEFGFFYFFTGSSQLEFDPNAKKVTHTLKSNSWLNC

As to `Cc1cc(COc2ccc(S(=O)(=O)N(C)C3(C(=O)NO)CN(C(=O)C(C)C)C3)cc2)c2ccccc2n1`, the IC50 worked out at 890 nM in [1]; 2100 nM in data set [2]; 180 nM against Matrilysin; 1300 nM against Collagenase 3; 9 nM in data set [6]; 4500 nM at Interstitial collagenase. Moreover, the IC50 in data set [9] amounted to 90 nM; in data set [11] it was 6500 nM; on Stromelysin-1, 90 nM; in data set [15] it was 4 nM; against Neutrophil collagenase, 2600 nM; in [17] it was 3 nM. Moreover, the Activity entry with TK6 [3], in the data set on Salmonella typhimurium [4], in the data set with Salmonella typhimurium [7], with Salmonella typhimurium [10], in the data set on Salmonella typhimurium [12] and with TK6 [13] was “Non-Toxic” throughout. In addition, the Activity result with TK6 [16] is reported as “Non-Toxic”. This compound also displayed a half-life at 1 µM in data set [5] of more than 24 h. Besides, in data set [8], the fraction unbound at 4 h, 5 µM stood at 0.019. Further, the remaining at 0.1 mg/ml in [14] stood at 99%.
As to `Cc1cc(COc2ccc(S(=O)(=O)N(C)C3(C(=O)NO)CN(C(=O)CC(C)C)C3)cc2)c2ccccc2n1`, the IC50 in data set [1] was found to be 1000 nM; in data set [2] it was 2200 nM; against Matrilysin, 210 nM; at Collagenase 3, 1200 nM; in data set [6], 33 nM; on Interstitial collagenase, 4600 nM. Also, the IC50 worked out at 480 nM in data set [9]; 4400 nM in data set [11]; 90 nM against Stromelysin-1; 7 nM in [15]; 3700 nM against Neutrophil collagenase; 20 nM in [17]. In addition, the Activity entry with TK6 [3], in the data set with Salmonella typhimurium [4], in the data set with Salmonella typhimurium [7], with Salmonella typhimurium [10], in the data set on Salmonella typhimurium [12] and in the data set on TK6 [13] was “Non-Toxic” throughout. Besides, the Activity entry in the data set with TK6 [16] was “Non-Toxic”. In [5], this compound registered a half-life at 1 µM of more than 24 h. The compound also registered a fraction unbound at 4 h, 5 µM in data set [8] of 0.003. Also, in data set [14], the remaining at 0.1 mg/ml amounted to 99%.
